Test results: ChEMBL document CHEMBL1201862, “PubChem BioAssay data set” (2004)
Activity calls are given as the source filed them.

Experiments:
BJ [1] = assay: cytotoxicity toward BJ-TERT-LT-ST fibroblasts, dose response, cell-based, RAS-independent, luminescence (AID 1935); assay type: functional; conditions: Homo sapiens;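 note: BJ fibroblasts immortalized with TERT plus LT and ST oncogenes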
[2] = inhibitors of firefly luciferase expression or activity, dose response, H4 neuroglioma cells, luminescence (AID 1990); assay type: functional, cell-based
[3] = HepG2 cell cytotoxicity, dose response, cytotoxicity control, dry powder samples (AID 720568); assay type: functional, cell-based
[4] = HEK293 cell cytotoxicity, dose response, cytotoxicity control, dry powder samples (AID 720567); assay type: functional, cell-based
BJ [5] = assay: cytotoxicity toward BJ-TERT fibroblasts, dose response, cell-based, RAS-independent, luminescence (AID 1933); assay type: functional; conditions: Homo sapiens
[6] = Luminescence Cell-Based Dose Response HTS to Identify Inhibitors of 5'UTR Stem-Loop Driven Prion Protein mRNA Translation in H4 Neuroglioblastoma Cells. [Related pubchem assays: 1827 (Project Summary), 1813 (Primary HTS)]; assay type: functional
BJ [7] = assay: cytotoxicity toward Ras-transformed BJeLR fibroblasts, dose response, cell-based, alamar blue fluorescence, cherrypicked samples (AID 2631); assay type: functional; conditions: Homo sapiens;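 note: confirmatory dose-response assay in RAS-dependent BJ fibroblasts engineered with TERT, LT and ST, with cytotoxicity read by fluorescence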
BJ [8] = assay: cells; assay type: functional, cell-based; conditions: Homo sapiens
[9] = cytotoxicity in HEK-293T cells, dose response, cytotoxicity control for TCR NF-kB inhibitor project, luminescence, T-cell screen hits (AID 489026); assay type: functional, cell-based;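 note: cells exposed to compound about 14 hours before the viability readout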
[10] = inhibitors of SNCA 5'UTR-driven reporter translation, confirmation, H4 neuroglioma cells, luminescence (AID 1988); assay type: functional, cell-based
[11] = cytotoxicity toward DRD oncogenic fibroblasts, dose response, cell-based, non-viral oncogenic, luminescence (AID 1934); assay type: functional; conditions: Homo sapiens
[12] = inhibitors of non-replicating M. tuberculosis, dose response, luciferase, dry powder (AID 651619); assay type: functional; conditions: Mycobacterium tuberculosis
[13] = inhibitors of non-replicating M. tuberculosis, dose response, luciferase, dry powder (AID 651620); assay type: functional; conditions: Mycobacterium tuberculosis
[14] = growth inhibition of replicating M. tuberculosis, dose response, counter-screen, dry powder, IC90 (AID 651617); assay type: functional; conditions: Mycobacterium tuberculosis
[15] = miR-122 activators in hepatoma reporter cells, dose response, cell-based, Huh7 psiCHECK-miR122, Renilla luciferase, cherry-picked (AID 651956); assay type: functional;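 note: huh7 hepatoma cells stably carrying a psiCHECK-2 miR-122 sensor plasmid; renilla luciferase signal reporting endogenous miR-122 activity after 48 h compound exposure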
[16] = HEK293T cytotoxicity, dose response, cytotoxicity control for miR-122 modulator project, cell-based, activator set, cherry-pick (AID 720690); assay type: functional;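 note: HEK293T human cells scored for general mammalian cytotoxicity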
[17] = inhibitors of PGC1a acetylation in cells, dose response, cell-based, cherry-picked samples (AID 720514); assay type: functional;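 note: potency may reflect raised or lowered acetylation signal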
[18] = P. falciparum Dd2 growth inhibitors, dose response, SYBR Green, cherry-picked samples (AID 1159567); assay type: functional, cell-based
[19] = HepG2 cell cytotoxicity, dose response, cytotoxicity control, cherry-picked samples (AID 1159577); assay type: functional, cell-based
[20] = A549 cell cytotoxicity, dose response, cytotoxicity control, 24 h, CellTiter-Glo luminescence, cherry-picks (AID 1053115); assay type: functional, cell-based; conditions: A549, 24 h
[21] = T. cruzi intracellular amastigote growth inhibition, dose response, imaging, CA-I/72 strain, bovine embryo skeletal muscle, dry powder (AID 651885); assay type: functional, cell-based
[22] = inhibitors of clade B AD8 Env fusion, dose response, cell-based, cherry-pick (AID 652062); assay type: functional;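 note: luciferase signal from cell-cell fusion driven by HIV-1 clade B AD8 Env; potency is for inhibitors of fusion seen as a drop in luminescence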
[23] = T. cruzi growth inhibition in host cells, dose response, cell-based, plate reader, dry powder, set 2 (AID 652275); assay type: functional
[24] = growth inhibition of intracellular T. cruzi, dose response, cell-based, plate reader, dry powder samples (AID 651845); assay type: functional
[25] = inhibitors of HIV Env-driven cell fusion, dose response, cherry-pick (AID 652057); assay type: functional, cell-based
[26] = cytotoxicity in HepG2 cells, dose response, cytotoxicity control, cell-based, plate reader, dry powder (AID 651947); assay type: functional
[27] = biological target: NAD-dependent protein deacylase sirtuin-5, mitochondrial (Homo sapiens, UniProt Q9NXA8); assay: SIRT5 desuccinylase inhibitors, dose response, biochemical, fluorescence imaging, cherry-pick, set 5 (AID 720591);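 note: desuccinylation of succinyl peptide AMC substrate read as fluorescence after trypsin release; potency of inhibitors that lower fluorescence and may act on trypsin instead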
Chain of NAD-dependent protein deacylase sirtuin-5, mitochondrial (Q9NXA8 whole entry): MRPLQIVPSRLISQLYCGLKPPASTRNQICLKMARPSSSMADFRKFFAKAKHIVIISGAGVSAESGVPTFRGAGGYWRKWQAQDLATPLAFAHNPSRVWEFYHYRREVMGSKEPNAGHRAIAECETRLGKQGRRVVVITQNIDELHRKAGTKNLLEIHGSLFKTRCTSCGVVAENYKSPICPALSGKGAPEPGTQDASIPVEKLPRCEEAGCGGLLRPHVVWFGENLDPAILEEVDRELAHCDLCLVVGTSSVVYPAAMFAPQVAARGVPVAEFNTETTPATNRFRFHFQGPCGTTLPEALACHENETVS

[28] = biological target: DNA (cytosine-5)-methyltransferase 1 (Homo sapiens, UniProt P26358); assay: DNMT1 methyltransferase inhibitors, confirmation, biochemical, fluorescent molecular beacon (AID 602386); assay type: functional
Chain of DNA (cytosine-5)-methyltransferase 1 (P26358 whole entry): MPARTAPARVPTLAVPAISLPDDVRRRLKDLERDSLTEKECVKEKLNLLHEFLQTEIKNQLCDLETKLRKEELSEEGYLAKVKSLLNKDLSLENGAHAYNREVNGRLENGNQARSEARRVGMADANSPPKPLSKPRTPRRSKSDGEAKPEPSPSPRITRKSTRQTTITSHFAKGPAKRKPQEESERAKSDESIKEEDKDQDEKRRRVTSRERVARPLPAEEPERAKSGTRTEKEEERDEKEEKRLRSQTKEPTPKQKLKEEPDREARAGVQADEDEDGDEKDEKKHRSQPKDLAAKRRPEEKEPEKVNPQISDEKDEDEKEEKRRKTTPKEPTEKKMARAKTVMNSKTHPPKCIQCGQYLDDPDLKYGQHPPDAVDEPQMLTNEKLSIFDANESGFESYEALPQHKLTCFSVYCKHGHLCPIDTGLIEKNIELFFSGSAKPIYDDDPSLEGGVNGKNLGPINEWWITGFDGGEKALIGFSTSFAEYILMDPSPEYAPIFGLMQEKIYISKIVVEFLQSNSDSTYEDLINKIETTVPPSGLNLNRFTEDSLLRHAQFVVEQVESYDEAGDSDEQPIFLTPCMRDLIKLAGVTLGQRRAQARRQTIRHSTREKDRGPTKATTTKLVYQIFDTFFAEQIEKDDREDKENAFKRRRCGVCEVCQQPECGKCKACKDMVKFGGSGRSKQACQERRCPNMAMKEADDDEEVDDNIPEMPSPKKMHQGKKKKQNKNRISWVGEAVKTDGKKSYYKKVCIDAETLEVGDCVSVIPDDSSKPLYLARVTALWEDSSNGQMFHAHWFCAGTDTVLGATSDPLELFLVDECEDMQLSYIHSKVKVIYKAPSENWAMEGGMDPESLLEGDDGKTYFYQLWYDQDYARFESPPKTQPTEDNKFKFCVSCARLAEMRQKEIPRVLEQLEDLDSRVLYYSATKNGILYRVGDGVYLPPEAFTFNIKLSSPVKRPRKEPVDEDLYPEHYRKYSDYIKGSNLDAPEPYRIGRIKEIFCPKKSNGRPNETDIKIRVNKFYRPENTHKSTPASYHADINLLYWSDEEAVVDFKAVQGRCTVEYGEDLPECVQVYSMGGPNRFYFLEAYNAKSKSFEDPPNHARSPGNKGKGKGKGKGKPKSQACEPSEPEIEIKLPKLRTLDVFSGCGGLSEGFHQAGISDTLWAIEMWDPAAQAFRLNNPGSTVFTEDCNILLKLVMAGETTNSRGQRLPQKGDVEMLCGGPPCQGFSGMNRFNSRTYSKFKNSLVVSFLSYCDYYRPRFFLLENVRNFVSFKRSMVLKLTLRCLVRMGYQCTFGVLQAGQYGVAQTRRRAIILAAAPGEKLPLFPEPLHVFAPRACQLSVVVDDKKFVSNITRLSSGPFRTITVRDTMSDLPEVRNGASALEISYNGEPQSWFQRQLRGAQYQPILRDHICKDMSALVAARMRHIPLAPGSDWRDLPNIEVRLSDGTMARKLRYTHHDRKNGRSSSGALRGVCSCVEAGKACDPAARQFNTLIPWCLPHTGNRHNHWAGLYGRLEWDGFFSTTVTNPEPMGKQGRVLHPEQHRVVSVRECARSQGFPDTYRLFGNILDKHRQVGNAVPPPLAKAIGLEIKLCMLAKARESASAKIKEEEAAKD

[29] = YAP1 pathway inhibition via CTGF transcript levels, dose response, cell-based, DLD1 colon cancer, RT-qPCR, cherry-pick (AID 1053122); assay type: functional; conditions: Cancer cell lines
[30] = CTGF mRNA reduction under YAP1 overexpression, dose response, mechanism study for YAP1 pathway inhibitor project, DLD1 cells, RT-qPCR, cherry-pick (AID 1053127); assay type: functional, cell-based; conditions: DLD-1
[31] = THP-1 cell cytotoxicity, dose response, cytotoxicity control for non-replicating M. tuberculosis project (AID 489025); assay type: functional
Vero [32] = assay: cells; assay type: functional, cell-based; conditions: Chlorocebus sabaeus
[33] = Vero E6 cell cytotoxicity, dose response, cytotoxicity control for non-replicating M. tuberculosis project, secondary assay (AID 492998); assay type: functional, VeroE6; conditions: Vero C1008
[34] = HepG2 cell cytotoxicity, dose response, cytotoxicity control, ATP luminescence, cherry-pick, set 6 (AID 1053125); assay type: functional, cell-based
Vero [35] = assay: cells; assay type: functional; conditions: Chlorocebus sabaeus
[36] = HepG2 cell cytotoxicity, dose response, cytotoxicity control for non-replicating M. tuberculosis project (AID 489018); assay type: functional; conditions: Mycobacterium tuberculosis
cells [37] = conditions: A549
[38] = biological target: T1, Short transient receptor potential channel 4 (Mus musculus, UniProt Q9QUQ5); assay: mouse TRPC4 channel activators, dose response, cell-based, HEK293 TRPC4/mu-opioid, Fluo-4 calcium (AID 434937); assay type: functional
T1 sequence (Q9QUQ5 whole entry): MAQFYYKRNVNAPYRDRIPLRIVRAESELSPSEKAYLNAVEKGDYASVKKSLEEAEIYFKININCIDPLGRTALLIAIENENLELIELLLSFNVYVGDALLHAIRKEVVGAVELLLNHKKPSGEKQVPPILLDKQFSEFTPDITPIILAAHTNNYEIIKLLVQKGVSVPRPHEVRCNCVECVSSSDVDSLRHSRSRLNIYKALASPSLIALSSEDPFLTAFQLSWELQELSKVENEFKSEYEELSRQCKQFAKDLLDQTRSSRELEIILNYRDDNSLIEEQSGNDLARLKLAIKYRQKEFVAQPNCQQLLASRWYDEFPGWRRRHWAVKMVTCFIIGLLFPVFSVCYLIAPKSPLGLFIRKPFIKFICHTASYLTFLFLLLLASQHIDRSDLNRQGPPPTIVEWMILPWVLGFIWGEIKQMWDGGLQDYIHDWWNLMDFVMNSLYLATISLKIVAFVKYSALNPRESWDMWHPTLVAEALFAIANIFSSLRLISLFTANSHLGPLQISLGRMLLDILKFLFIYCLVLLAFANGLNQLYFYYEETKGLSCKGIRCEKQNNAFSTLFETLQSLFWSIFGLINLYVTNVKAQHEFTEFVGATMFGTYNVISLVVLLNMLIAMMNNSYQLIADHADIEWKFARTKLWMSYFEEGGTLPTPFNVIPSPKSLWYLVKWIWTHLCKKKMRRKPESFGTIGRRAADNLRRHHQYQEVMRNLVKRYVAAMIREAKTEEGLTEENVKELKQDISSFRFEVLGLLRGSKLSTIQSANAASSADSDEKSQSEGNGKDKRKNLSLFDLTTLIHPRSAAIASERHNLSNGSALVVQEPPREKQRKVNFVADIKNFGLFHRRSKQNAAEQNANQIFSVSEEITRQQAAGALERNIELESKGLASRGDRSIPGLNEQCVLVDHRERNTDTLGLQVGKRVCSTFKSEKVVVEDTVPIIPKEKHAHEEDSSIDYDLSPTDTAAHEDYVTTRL

cells [39] = conditions: HEK293
cells [40] = assay type: functional
[41] = human group III sPLA2 inhibitors, dose response, biochemical, QFRET, IC50 (AID 743457);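 note: green fluorescence rise as the enzyme cleaves BODIPY PC-A2 in liposomes; potency for inhibition of the enzyme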
[42] = EDANS-DABCYL fluorescence interference, concentration series, dose response, artefact control for kallikrein-7 zymogen activator project, biochemical, fluorescence intensity, triplicate (AID 720493)
Kallikrein-7 = Kallikrein-7 (Homo sapiens, UniProt P49862); assay: Fluorescence Intensity-based biochemical primary high throughput dose response assay to identify activators of kallikrein-7 (K7) zymogen.
Chain of Kallikrein-7 (P49862 whole entry): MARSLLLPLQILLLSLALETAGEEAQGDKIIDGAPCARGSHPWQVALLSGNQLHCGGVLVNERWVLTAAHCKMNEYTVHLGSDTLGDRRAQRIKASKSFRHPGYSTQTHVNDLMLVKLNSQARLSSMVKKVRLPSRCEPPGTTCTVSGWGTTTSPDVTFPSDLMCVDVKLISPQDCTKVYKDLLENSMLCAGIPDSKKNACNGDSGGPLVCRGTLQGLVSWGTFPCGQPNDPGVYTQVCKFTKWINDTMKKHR

CC(=O)c1ccc(Oc2cc(C)nc(-n3nc(C)cc3C)n2)cc1
active: EC50 (BJ [1]) 1.45 µM | EC50 [2] 4.5 µM | AC50 [4] 15.8 µM | EC50 (BJ [5]) 1.95 µM | EC50 [6] 0.339 µM | EC50 (BJ [7]) 0.264 µM | EC50 [10] 0.44 µM | EC50 [11] 0.917 µM
inconclusive: EC50 (BJ [8]) 63.8 µM
inactive: AC50 [3] > 30 µM | IC50 [9] > 80 µM

c1ccc(Cn2cc(CSc3nnc(C4CCC4)o3)nn2)cc1
active: IC90 [12] 4 µM | IC90 [13] 4 µM | IC90 [14] 250 µM

O=C(Nc1ccccc1F)N1CCCCN2[C@@H](CO)[C@@H](c3ccc(C#Cc4ccccc4)cc3)[C@@H]2C1
active: AC50 [15] 8.65 µM | AC50 [16] 7.45 µM | AC50 [17] 15.9 µM | AC50 [18] 2.13 µM | AC50 [19] 9.78 µM

CN1c2ccc(-c3ccc(C#N)cc3)cc2[C@H]2[C@H](CCN2C(=O)C2CCCCC2)[C@@H]1CO
active: AC50 [20] 36.2 µM

C[C@@H]1CN([C@H](C)CO)C(=O)c2cccc(NC(=O)c3ccncc3)c2O[C@H]1CN(C)CC1CCCCC1
active: IC50 [21] 0.961 µM | AC50 [22] 4.84 µM | AC50 [23] 0.303 µM | AC50 [24] 0.391 µM | AC50 [25] 0.884 µM

c1ccc(CSc2nnc(-c3cscn3)o2)cc1
active: AC50 [26] 34.4 µM

Cc1ccc(S(=O)(=O)N2[C@@H](c3ccc(C(C)(C)C)cc3)C(C(=O)O)=CC[C@H]2c2ccc(C(C)C)cc2)cc1
active: AC50 [27] 17.5 µM | IC50 [28] 5.04 µM

C[C@@H]1C/C=C/C[C@H](c2ccc(F)cc2)NC(=O)[C@@H](Cc2ccccc2)N(C)C(=O)c2ccccc2O1.C[C@@H]1C/C=C\C[C@H](c2ccc(F)cc2)NC(=O)[C@@H](Cc2ccccc2)N(C)C(=O)c2ccccc2O1
active: AC50 [29] 4.01 µM | AC50 [30] 20.9 µM

CCCOc1ccc(C(=O)NNC(=S)NC(=O)c2ccco2)cc1
active: CC50 [31] 7.6 µM | IC50 (Vero [32]) > 25 µM | CC50 [33] 8.73 µM | CC50 (Vero [35]) 20.7 µM | CC50 [36] 17.4 µM | AC50 (cells [37]) 36.8 µM | EC50 [38] 5.96 µM | AC50 (cells [39]) 42.2 µM | IC50 (cells [40]) 2.55 µM
inactive: AC50 [34] > 52 µM | IC50 [41] 44 µM

O=C1c2ccccc2NC(c2cccnc2)N1c1ccccc1F (stereo not drawn)
active: EC50 [42] > 7.72 µM
inactive: EC50 (Kallikrein-7) > 69.5 µM
